How the values were obtained:
human ATX = human ATX (Homo sapiens (Human), UniProt Q13822); test: Human ATX enzyme inhibition assay (fluorescence quenching, MR121 substrate); type: biochemical; settings: human His-tagged ATX 30 nM, MR121 substrate 1 μM, 30° C.; read-out: ATX IC50
Outline: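 Human His-tagged ATX (30 nM final) preincubated 15 min at 30 °C with serially diluted compounds in Tris buffer pH 8.0 with Ca2+, Mg2+ and 0.01% Triton X-100. MR121/tryptophan-labelled substrate analogue (1 μM final) then added for 15 min at 30 °C; cleavage read by fluorescence dequenching.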

[1] = target: Human carbonic anhydrase II (hCA-II) (Homo sapiens (Human), UniProt P00918); test: Human carbonic anhydrase-II inhibition assay (absorbance, 4-nitrophenyl acetate substrate); type: biochemical; settings: hCA II 8 nM, 4-NPA 2.5 mM, absorbance 340 nm, room temperature 1 hour; read-out: CA-II IC50

Structure (SMILES) | IC50 (human ATX) [nM] | IC50 [1] [nM]
CC(C)(C)C(=O)Nc1cc2ccccc2nc1COC(=O)N1CC2=C(C1)CN(C(=O)c1ccc(S(N)(=O)=O)cc1F)C2 [Example 4.01, [3-(2,2-dimethylpropanoylamino)quinolin-2-yl]methyl 2-(2-fluoro-4-sulfamoylbenzoyl)-1,3,4,6-tetrahydropyrrolo[3,4-c]pyrrole-5-carboxylate] | 3 | 3.6
CC(C)(C)C(=O)Nc1cc(C(F)(F)F)cnc1COC(=O)N1CC2=C(C1)CN(S(=O)(=O)c1ccc(S(N)(=O)=O)cc1F)C2 [Example 5.00, [3-(2,2-dimethylpropanoylamino)-5-(trifluoromethyl)pyridin-2-yl]methyl 5-(2-fluoro-4-sulfamoylphenyl)sulfonyl-1,3,4,6-tetrahydropyrrolo[3,4-c]pyrrole-2-carboxylate] | 7 | 17.6
